Assay results taken from patent US20040033614A1, “Detection of oxidative intermediates in biological samples” (priority 2002, published 2004).

Legend:
[1] = test system: urinary albumin and total urinary protein oxidation; test: Carbonylation of urine proteins by Western blotting (DNP derivatization, OxyBlot); assay type: in vivo, patients with chronic kidney disease
Procedure: (§1) The protocol design of this study was reported in detail previously (15). Briefly, patients between the ages of 18 to 80 years with proteinuria of ≧1 g/d, hypertension defined as mean arterial pressure ≧97 mm Hg, serum potassium of ≦5.5 mEq/L and on lisinopril therapy of 40 mg/d for >3 months were eligible for the study. Patients who had previously received angiotensin receptor blockers or with estimated creatine clearance of <30 ml/min were excluded.
(§2) The study was a two period, cross-over, randomized controlled trial. Patients received either a sequence of losartan 50 mg/d for 4 weeks, a two week washout, and then placebo for 4 weeks or placebo for 4 weeks, a two week washout, and then losartan 50 mg/d for 4 weeks. Lisinopril 40 mg/d along with other anti-hypertensive therapy were continued throughout the trial. 24-hour urine was collected for protein, sodium, urea and creatinine, urinary carbonylated protein, malondialdehyde and monocyte chemotactic protein-l (MCP1) measurements. As the standard therapy for patients with proteinuria and renal failure includes ACE-inhibitors, ACE-inhibitors were not removed from any patient enrolled in the study.
Oxidation of plasma and urine proteins was measured by Western blot analysis according to the method of Shacter et al. Total protein was determined using the Vitros Dry Slide system (Ortho-Clinical Diagnostics, Rochester, N.Y.). Plasma was diluted 1:25 (v:v) with phosphate-buffered saline (PBS), and one aliquot of the diluted sample was derivatized and another prepared as an underivatized control using the OxyBlot protein oxidation detection kit (Intergen, Purchase, N.Y.). […] Derivatized and underivatized plasma or urine samples were loaded on electrophoresis gels in volumes calculated to give 5 μg of protein per sample, and the samples were electrophoresed according to the method of Laemmli on 4 to 20% gradient SDS-PAGE (Bio-Rad, Hercules, Calif.). […] Bands were visualized with chemiluminescent chemicals and captured on film at two exposure times (30 seconds and 1 minute). Blots were scanned on a Hewlett-Packard ScanJet 5200C scanner (Hewlett-Packard, Palo Alto, Calif.) and analyzed for band area using Un-Scan-It Gel software (Silk Scientific, Orem, Utah).
Samples from individual patients before and after losartan therapy, including derivatized and underivatized controls, were analyzed on a single Western blot. This ensured that the response to losartan therapy was compared under the same analytical conditions. […] Density of individual albumin bands and total protein in each sample lane was determined using the same size section of each scanned blot. […] The uniform window size and analysis box ensured that data were being analyzed consistently from band to band and from blot to blot. […]

plasma protein carbonyl = test: Total plasma protein carbonyl measurement by size exclusion HPLC; assay type: in vivo, patients with chronic kidney disease; settings: direct measurement of protein carbonylation in plasma
Procedure: as §1, §2

[2] = test system: plasma albumin and total plasma protein oxidation; test: Carbonylation of plasma proteins by Western blotting (DNP derivatization, OxyBlot); assay type: in vivo, patients with chronic kidney disease; settings: before vs after losartan 50 mg/d for 4 weeks
Procedure: as §1
The study was a two period, cross-over, randomized controlled trial. […]
Oxidation of plasma and urine proteins was measured by Western blot analysis according to the method of Shacter et al. Total protein was determined using the Vitros Dry Slide system (Ortho-Clinical Diagnostics, Rochester, N.Y.). […] Derivatized and underivatized plasma or urine samples were loaded on electrophoresis gels in volumes calculated to give 5 μg of protein per sample, and the samples were electrophoresed according to the method of Laemmli on 4 to 20% gradient SDS-PAGE (Bio-Rad, Hercules, Calif.). […] Blots were scanned on a Hewlett-Packard ScanJet 5200C scanner (Hewlett-Packard, Palo Alto, Calif.) and analyzed for band area using Un-Scan-It Gel software (Silk Scientific, Orem, Utah).
Samples from individual patients before and after losartan therapy, including derivatized and underivatized controls, were analyzed on a single Western blot. […]

urinary MDA = test: Urinary malondialdehyde by fluorometric HPLC, cross-over trial of add-on losartan; assay type: in vivo, patients with chronic kidney disease; settings: losartan 50 mg/d for 4 weeks added to lisinopril 40 mg/d; significantly decreased from 4.75±3.23 before therapy; mean ± SD, 16 patients
Procedure: (§3) Sample derivatization was carried out in 2 mL capacity plastic centrifuge tubes fitted with screw-on caps. To a 50 μl aliquot of sample or TEP standard, 50 μl BHT solution, 400 μl H3PO4 solution, and 100 μl TBA solution were added. Sample tubes were capped tightly, vortexed and then heated for 1 hour in a 100° C. dry bath incubator. Following heat derivatization, samples were placed in an ice-water (0° C.) water bath for 5 minutes to cool. 250 μl n-butanol was subsequently added to each vial for extracting the MDA-TBA complex. Tubes were vortexed for 5 minutes and then centrifuged for 3 minutes at 14,000× min^−1 to separate the two phases. Aliquots of 100 μl were removed from the n-butanol layer of each sample and placed in HPLC vials for analysis.
(§4) The chromatographic system consisted of a Hewlett-Packard Chromatographic Series 1100 autosampler and isocratic pump and Hewlett-Packard model 1046A programmable fluorescence detector (Palo Alto, Calif., USA). The autosampler was programmed to inject 10 μl of each sample at 1-minute intervals. The pump flow rate was 1.0 ml/min with the mobile phase comprised of methanol-buffer (40:60, v/v). […] The fluorescence detector was set at an excitation wavelength of 515 nm and emission wavelength of 553 nm. […] Peak areas were determined using a ChromJet integrator (Thermo Separation Products, San Jose, Calif.). […]

plasma MDA = test: Plasma malondialdehyde by fluorometric HPLC, cross-over trial of add-on losartan; assay type: in vivo, patients with chronic kidney disease; settings: losartan 50 mg/d for 4 weeks added to lisinopril 40 mg/d
Procedure: as §3, §4

[3] = Blood pressure and proteinuria in the add-on losartan trial; assay type: in vivo, patients with chronic kidney disease; settings: losartan 50 mg/d added to lisinopril 40 mg/d; as reported previously (15)
Procedure: The protocol design of this study was reported in detail previously (15). Briefly, patients between the ages of 18 to 80 years with proteinuria of ≧1 g/d, hypertension defined as mean arterial pressure ≧97 mm Hg, serum potassium of ≦5.5 mEq/L and on lisinopril therapy of 40 mg/d for >3 months were eligible for the study. […] The study was a two period, cross-over, randomized controlled trial. Patients received either a sequence of losartan 50 mg/d for 4 weeks, a two week washout, and then placebo for 4 weeks or placebo for 4 weeks, a two week washout, and then losartan 50 mg/d for 4 weeks. Lisinopril 40 mg/d along with other anti-hypertensive therapy were continued throughout the trial. […] Serum chemistries, complete blood counts, urine protein, electrolytes, urea and creatinine were measured in a hospital laboratory using routine methods. Specifically, creatinine was measured on a Hitachi 911 analyzer (Boehringer Mannheim) using the alkaline picrate method and urine protein was measured using a turbidometric method using benzethonium chloride read at 550 nm (Roche Diagnostics Corporation, Indianapolis, Ind.). Ambulatory blood pressure was measured with SpaceLabs 90207 monitors and glomerular filtration rate measurements with continuous infusion of iothalamate as previously reported (15).

[4] = test system: superoxide dismutase and glutathione peroxidase; settings: 5/6th nephrectomized rats treated with enalapril; reference 26; cited from earlier work

Row | SMILES | total urinary protein oxidation in excess of plasma after losartan therapy ([1]; after treatment, p=0.029, 99% higher before therapy) [%] | urinary albumin oxidation compared to plasma albumin after losartan ([1]; after treatment, p=0.45, 71% higher before therapy) | total urinary protein oxidation, change with losartan ([1]; before vs after losartan 50 mg/d for 4 weeks) | oxidative damage to urinary albumin ([1]; losartan 50 mg/d for 4 weeks added to lisinopril 40 mg/d, before vs after, proteinuria not reduced) | carbonyl concentration from oxidized proteins in plasma, change with losartan (plasma protein carbonyl) | plasma albumin oxidation, change with losartan [2] | plasma protein oxidation, change with losartan [2] | urinary MDA levels after losartan therapy (urinary MDA) [μmol/g creatinine] | plasma MDA, change in response to losartan therapy (plasma MDA) | blood pressure, change in response to add-on losartan therapy [3] | proteinuria, change in response to add-on losartan therapy [3] | antioxidant enzymes in the kidney (superoxide dismutase, glutathione peroxidase) [4]
1 | CCCCc1nc(Cl)c(CO)n1Cc1ccc(-c2ccccc2-c2nn[nH]n2)cc1 [losartan] | 69 | no more oxidized | did not reach statistical significance | reduced | remained unchanged | remained unchanged | remained unchanged | 3.39±2.17 | Neither plasma MDA or plasma oxidized proteins (FIGS. 6B and 7) changed | no change | no change | 
2 | CCOC(=O)[C@H](CCc1ccccc1)N[C@@H](C)C(=O)N1CCC[C@H]1C(=O)O [enalapril] |  |  |  |  |  |  |  |  |  |  |  | increased
